Data published in PubChem BioAssay (NCI).
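Cultured in 96-well plates, cells were exposed to test compound for 48 hours across five concentrations. GI50 is the concentration that inhibits growth by half. TGI denotes the concentration required for complete inhibition of growth.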

Key:
Assay in all cases: growth of human tumour cells (NCI), 48 h
[1] = test system: OVCAR-5 ovarian
[2] = test system: HOP-62 NSCLC
[3] = test system: 786-0 renal
[4] = test system: SNB-19 CNS
[5] = test system: DU-145 prostate
[6] = test system: NCI-H226 lung
[7] = test system: HL-60(TB) leukemia
[8] = test system: RXF 393 renal
[9] = test system: SW-620 colon
[10] = test system: HCT-15 colon
[11] = test system: TK-10 renal
[12] = test system: HCT-116 colon
[13] = test system: CAKI-1 renal
[14] = test system: HCC-2998 colon
[15] = test system: MDA-MB-435
[16] = test system: SF-539 CNS
[17] = test system: RPMI-8226 leukemia
[18] = test system: SK-MEL-2 melanoma
[19] = test system: MCF7 breast
[20] = test system: A549 NSCLC
[21] = test system: SK-MEL-28 melanoma
[22] = test system: A498 renal
[23] = test system: BT-549 breast
[24] = test system: HS 578T breast
[25] = test system: HOP-92 NSCLC
[26] = test system: OVCAR-3 ovarian
[27] = test system: K-562 leukemia
[28] = test system: MDA-MB-231 breast
[29] = test system: ACHN renal

Question: Which TGI [1] does the source give for COc1ccc(-c2nsc3c2NC(=O)CC3c2cccc(Cl)c2)cc1 (configuration not stated) here?
Answer: > 100 µM

Question: And the GI50 [2]?
Answer: 4.04 µM

Question: And the TGI [2]?
Answer: 98.1 µM

Question: And the GI50 [3]?
Answer: 9.39 µM

Question: What about the TGI [3] of the same compound?
Answer: > 100 µM

Question: And the GI50 [4]?
Answer: 5.44 µM

Question: And the TGI [4]?
Answer: > 100 µM

Question: And the GI50 [5]?
Answer: 3.3 µM

Question: What about the TGI [5] of the same compound?
Answer: > 100 µM

Question: What about the GI50 [6] of the same compound?
Answer: 10.8 µM

Question: What about the TGI [6] of the same compound?
Answer: > 100 µM

Question: And the GI50 [7]?
Answer: 2.28 µM

Question: And the TGI [7]?
Answer: > 27.6 µM

Question: What about the GI50 [8] of the same compound?
Answer: 2.57 µM

Question: What about the TGI [8] of the same compound?
Answer: 33 µM

Question: And the GI50 [9]?
Answer: 0.497 µM

Question: And the TGI [9]?
Answer: > 100 µM

Question: What about the GI50 [10] of the same compound?
Answer: 0.646 µM

Question: And the TGI [10]?
Answer: > 100 µM

Question: And the GI50 [11]?
Answer: 3.48 µM

Question: And the TGI [11]?
Answer: > 100 µM

Question: What about the GI50 [12] of the same compound?
Answer: 0.83 µM

Question: And the TGI [12]?
Answer: > 100 µM

Question: And the GI50 [13]?
Answer: 0.981 µM

Question: And the TGI [13]?
Answer: 70.1 µM

Question: What about the GI50 [14] of the same compound?
Answer: 11.5 µM

Question: What about the TGI [14] of the same compound?
Answer: > 100 µM

Question: What about the GI50 [15] of the same compound?
Answer: 0.226 µM

Question: What about the TGI [15] of the same compound?
Answer: 0.917 µM

Question: And the GI50 [16]?
Answer: 1.75 µM

Question: And the TGI [16]?
Answer: 6.06 µM

Question: And the GI50 [17]?
Answer: 3.6 µM

Question: And the TGI [17]?
Answer: > 100 µM

Question: What about the GI50 [18] of the same compound?
Answer: 0.878 µM

Question: What about the TGI [18] of the same compound?
Answer: 9.93 µM

Question: And the GI50 [19]?
Answer: 0.809 µM

Question: What about the TGI [19] of the same compound?
Answer: > 100 µM

Question: And the GI50 [20]?
Answer: 0.987 µM

Question: What about the TGI [20] of the same compound?
Answer: > 100 µM

Question: What about the GI50 [21] of the same compound?
Answer: 4.54 µM

Question: What about the TGI [21] of the same compound?
Answer: > 100 µM

Question: And the GI50 [22]?
Answer: 1.34 µM

Question: And the TGI [22]?
Answer: 8.1 µM

Question: What about the GI50 [23] of the same compound?
Answer: 7.51 µM

Question: And the TGI [23]?
Answer: > 100 µM

Question: And the GI50 [24]?
Answer: 2.98 µM

Question: What about the TGI [24] of the same compound?
Answer: > 65.4 µM

Question: And the GI50 [25]?
Answer: 1.09 µM

Question: And the TGI [25]?
Answer: 33.6 µM

Question: What about the GI50 [26] of the same compound?
Answer: 1.74 µM

Question: And the TGI [26]?
Answer: > 29 µM

Question: What about the GI50 [27] of the same compound?
Answer: 0.399 µM

Question: And the TGI [27]?
Answer: > 100 µM

Question: What about the GI50 [28] of the same compound?
Answer: 2.37 µM

Question: And the TGI [28]?
Answer: > 100 µM

Question: What about the GI50 [29] of the same compound?
Answer: 7.5 µM

Question: What about the TGI [29] of the same compound?
Answer: > 100 µM
